Like-named read-outs stand apart in the source and are kept apart here.
Tests used:
[1] = Compound stability, IP-One incubation; type: in vitro ADME; conditions: IP-One stimulation medium on CHO-K1 cells expressing 5-HT2A, 2 μM, 60 min vs T0, 37° C.
Description: IP-One incubation. CHO-K1 cells expressing recombinant Serotonin receptor 5-HT2A (Perkin Elmer, Waltham, MA), were seeded in 96-well plates (˜80,000 cells/well) and treated with 28 μL (per well) of stimulation medium (IP-One HTRF® kit) containing test compounds (2 μM) for 1 hr in a CO2 incubator (5%) at 37° C. The cell-treated medium from 3 wells were pooled together to provide 40 μL for LC-MS analysis. Aliquots for each compound were collected at time zero (To, 100% intact test compound) and 60-min. The incubated medium (40 μL) was quenched with 120 μL of acetonitrile containing 0.5 μM glyburide (IS), and the supernatant was collected by centrifugation (2500 rpm, 15 min.). LC-MS was performed using an Agilent MSD (electrospray in positive ionization) equipped with a Kinetic C18 reverse-column. The percent of test compound remaining is calculated using the ratio of the peak areas of intact test compound at 60 min. over T0. The percent of psilocin release is calculated by comparing the peak area of psilocin at 60 min. (for test compound) vs. peak area at T0 (2 μM psilocin). Results are summarized in Table 1, (rel to % parent detected; and/or % psilocin detected).

[2] = Compound stability in fasted state simulated gastric fluid (FaSSGF); type: in vitro ADME; conditions: 37° C., 60 min vs T0
Description: Fasted state simulated gastric fluid (FaSSGF). FaSSGF was prepared according to the manufacturer instructions (Biorelevant, UK). Test compounds (2 μL of 200 μM solution) were added to a 96-well plate containing 198 μL FaSSGF per well. The mixture was incubation in a thermomixer at 37° C. for 60 min. Sample aliquots were removed (40 μL, from T0 and 60 min.) and quenched with acetonitrile containing 0.5 μM glyburide (IS), and the supernatant collected by centrifugation (2500 rpm, 15 min.). LC-MS was performed using an Agilent MSD (electrospray in positive ionization) equipped with a Kinetic C18 reverse-column. The percent of test compound remaining was calculated using the ratio of the peak area of intact test compound at 60 min. over T0. The percent of psilocin release was calculated by comparing the peak area of psilocin at 60 min, (for test compound) vs. peak area at T0 (2 μM psilocin).

[3] = Single-dose oral pharmacokinetics in mice (plasma and brain); type: in vivo, C57BL6 mice; conditions: PO 3.0 mg/kg
Description: The single-dose pharmacokinetics of test compounds were analyzed relative to control (psilocin) in C57BL6 mice via oral (PO) administration. Test compound was dissolved in DMSO and transferred to a 15-mL tube, followed by addition of Tween-80, PEG-400, and water to final volume. The resulting formulation (0.3 mg/mL compound, in DMSO (1%), Tween-80 (5%), and PEG-400 (25%) in water (69%)) was vortexed for 2 min. and mixed by inversion.
Male C57BL6 mice (3× per compound, (at a weight ˜20 g)) received a single dose (oral) of test compound at 3.0 mg/kg. Blood samples were collected pre-dose and at 0.083, 0.25, 0.5, 1, 2, 4, 8, 24-hour post-dose to yield approximately 20 μL of pooled plasma (3× mice) per time point. Brain tissues were collected at 2- and 8-hr post-dose. Brain was flushed with saline solution using a perfusion needle through the ascending aorta of the ventricle to remove any remaining blood prior to collection. Plasma and brain homogenate samples were stored at −80° C. prior to extraction for LC-MS/MS analysis.
Samples were analyzed by LC-MS/MS to quantify the amounts of test compound and control (psilocin). The calculation of the pharmacokinetic (PK) parameters (AUCt, AUCinf, Cmax, Tmax, T1/2, and Kel) can be performed using a non-compartmental analysis (trapezoidal method).

[4] = target: human serotonin 5HT2A receptor (Homo sapiens, UniProt P28223); assay: 5HT2A receptor radioligand displacement assay; conditions: displacement of [3H]-ketanserin or [3H]-LSD, 5HT2A membrane from HEK293
Sequence of human serotonin 5HT2A receptor (P28223 whole entry): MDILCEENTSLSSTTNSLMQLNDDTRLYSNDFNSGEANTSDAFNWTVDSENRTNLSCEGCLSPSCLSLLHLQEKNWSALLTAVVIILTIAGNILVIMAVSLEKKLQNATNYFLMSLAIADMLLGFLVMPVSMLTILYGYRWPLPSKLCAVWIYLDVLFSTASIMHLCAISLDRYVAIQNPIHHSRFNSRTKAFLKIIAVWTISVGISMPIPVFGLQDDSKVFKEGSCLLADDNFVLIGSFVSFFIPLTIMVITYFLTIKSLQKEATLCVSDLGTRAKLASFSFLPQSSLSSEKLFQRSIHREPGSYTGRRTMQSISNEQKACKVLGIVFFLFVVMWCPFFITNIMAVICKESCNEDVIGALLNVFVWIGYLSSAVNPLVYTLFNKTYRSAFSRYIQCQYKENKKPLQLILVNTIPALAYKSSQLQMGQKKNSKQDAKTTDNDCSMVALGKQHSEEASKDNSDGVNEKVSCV

CN(C)CCc1c[nH]c2cccc(O)c12 [Psilocin, 4-hydroxy-N,N-dimethyltryptamine]
% parent compound [1]: 87.4%
% parent compound [2]: 72.2%
mean brain/plasma (B/P) ratio ([3]; 2-h post-dose, with estimated plasma concentration of 5 ng/mL): 11.2±4.3
psilocin in the brain at 8-h post-dose ([3]; 8-h post-dose): No psilocin in the brain was detected
Parent PK [brain] 2 h ([3]; brain, 2 h post-dose, parent compound): 54 ng/mL
Cmax ([3]; male, C57BL6, mouse, plasma, estimated, based on other pharmacokinetic data, read-out: Parent PK Cmax (estimated psilocin plasma concentration)): 5 ng/mL
Displacement activity relative to psilocin [4]: ++

CCOCOc1cccc2[nH]cc(CCN(C)C)c12 [drawing 86]
% parent compound [1]: 91.9%

COC(C)Oc1cccc2[nH]cc(CCN(C)C)c12 (centres unmarked) [drawing 87]
% parent compound [1]: 88.8%

COC(C)Oc1cccc2[nH]cc(CCN(C)C)c12 (centres unmarked) [drawing 97]
Displacement activity relative to psilocin [4]: ++

COC(C)n1cc(CCN(C)C)c2c(O)cccc21 (centres unmarked) [drawing 88]
% parent compound [1]: 82.5%

COC(C)n1cc(CCN(C)C)c2c(O)cccc21 (centres unmarked) [drawing 98]
Displacement activity relative to psilocin [4]: +

CCOCOc1cccc2[nH]cc(CCN(C)C)c12 [drawing 91]
% parent compound [2]: 97%

COCCOCn1cc(CCN(C)C)c2c(OCOC)cccc21 [drawing 94]
% parent compound [2]: 20%

COC(C)Oc1cccc2[nH]cc(CCN(C)C)c12 (centres unmarked) [Test compound A, 2-(4-(1-methoxyethoxy)-1H-indol-3-yl)-N,N-dimethylethan-1-amine]
concentration at 2 h ([3]; male, C57BL6, mouse, brain, 2 h post-dose, parent compound, read-out: Parent PK [brain] 2 h): 0.6 ng/mL
AUC ([3]; male, C57BL6, mouse, plasma, parent compound, read-out: Parent PK AUC): 51.4 ng·h/mL
Cmax ([3]; male, C57BL6, mouse, plasma, parent compound, read-out: Parent PK Cmax): 21.6 ng/mL

COCCOCn1cc(CCN(C)C)c2c(OCOC)cccc21 [drawing 99]
Displacement activity relative to psilocin [4]: +

CCOCOc1cccc2[nH]cc(CCN(C)C)c12 [drawing 96]
Displacement activity relative to psilocin [4]: +++

COCCOCn1cc(CCN(C)C)c2c(OCOC)cccc21 [drawing 89]
% parent compound [1]: 94.7%
